Literature values, collected in patent US20080168569A1, “Non-invasive methods and related compositions for identifying compounds that modify in vivo aggregations of disease-related polypeptides” (priority 2004, published 2008).

Test system: truncated DRPLA proteins that contain an expanded-polyglutamine domain
Conditions: in vitro; transglutaminase inhibitors

SMILES | formation of cellular aggregates of truncated DRPLA proteins
NCCSSCCN [cystamine] | inhibit the formation of cellular aggregates
CN(C)c1cccc2c(S(=O)(=O)NCCCCCN)cccc12 [monodansyl cadaverine] | inhibit the formation of cellular aggregates
